Some test systems named below: HCC-2998 colon; HOP-62 NSCLC; IGROV1 ovarian; M14 melanoma; MDA-MB-231 breast; NCI-H226 lung; SF-539 CNS; SK-MEL-28 melanoma; SNB-75 CNS; UO-31 renal.
Assay in all cases: growth of human tumour cells (NCI), 48 h

The text below walks through data of PubChem BioAssay (NCI).

Several values for one entry are separate records, joined by “and”; a condition that tells them apart may be missing. Identical values can stand only once.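 Step 1: Grow cells in 96-well plates. Step 2: Expose to compound for 48 hours at 5 concentrations. Step 3: Interpolate endpoints linearly; if unreached, use highest concentration. The concentration for 50% growth inhibition is given as GI50. TGI marks complete inhibition of growth.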

For the compound `C=CC(=O)N1CC2(CC(n3nc(-c4ccc5c(cnn5C)c4)c(-c4c(Cl)c(C)cc5[nH]ncc45)c3C)C2)C1`, the GI50 with HCC-2998 colon is 1850 nM; with IGROV1 ovarian it was 2760 nM; with M14 melanoma it was 2880 nM; in the test on MDA-MB-231 breast it was 2540 nM; in the test with NCI-H226 lung, 2.63 µM; with SF-539 CNS, 2150 nM. Besides, the GI50 in the test with SK-MEL-28 melanoma was 2440 nM; in the test with SNB-75 CNS it was 2570 nM; in the test on UO-31 renal it was 1970 nM. In addition, the TGI in the test with HCC-2998 colon worked out at 3.36 µM; in the test with HOP-62 NSCLC, 19.5 µM; with IGROV1 ovarian it was 8.18 µM; in the test on M14 melanoma, 11.2 µM; with MDA-MB-231 breast, 6.62 µM; with NCI-H226 lung, 8.75 µM. In addition, the TGI in the test with SF-539 CNS turned out to be 5.17 µM; with SK-MEL-28 melanoma it was 5.44 µM; in the test with SNB-75 CNS, 11.9 µM; with UO-31 renal, 4.68 µM.

Consider `N#CC1c2ccccc2C=CN1C(=O)N(c1ccccc1)c1ccccc1` (centres undefined), for which the GI50 is 11100 nM in the test on HCC-2998 colon; 13600 nM in the test on HOP-62 NSCLC; 1760 nM with IGROV1 ovarian; 2190 nM in the test with M14 melanoma; 2940 nM in the test on MDA-MB-231 breast; 3.76 µM in the test with NCI-H226 lung. For the same compound, the GI50 was 4690 nM with SF-539 CNS, 2430 nM with SK-MEL-28 melanoma, 6300 nM in the test on SNB-75 CNS and 1490 nM in the test with UO-31 renal. Besides, the TGI in the test on HCC-2998 colon is 23.9 µM; in the test with HOP-62 NSCLC, 26.7 µM; in the test on IGROV1 ovarian, 3.66 µM; in the test with M14 melanoma it was 5.19 µM; with MDA-MB-231 breast, 8.35 µM; with NCI-H226 lung, 15.2 µM. Moreover, the TGI is 17.9 µM with SF-539 CNS, 5.84 µM in the test on SK-MEL-28 melanoma, 21 µM with SNB-75 CNS and 3.12 µM in the test with UO-31 renal.

On to `COC(=O)c1ccc(NC(=O)Oc2ccc(N(CCCl)CCCl)cc2)cc1`, for which the GI50 with HCC-2998 colon is 29100 nM; in the test on HOP-62 NSCLC it was 3990 nM; in the test with IGROV1 ovarian, 11800 nM; in the test on M14 melanoma, 5970 nM; with MDA-MB-231 breast, 20100 nM; with NCI-H226 lung, 12.1 µM. Moreover, the GI50 in the test with SF-539 CNS was 2920 nM; in the test with SK-MEL-28 melanoma, 30700 nM; in the test with SNB-75 CNS, 6160 nM; with UO-31 renal, 4860 nM. Also, the TGI is over 100 µM in the test on HCC-2998 colon; 24.8 µM in the test on HOP-62 NSCLC; 59.8 µM in the test on IGROV1 ovarian; over 100 µM in the test on M14 melanoma; over 100 µM in the test with MDA-MB-231 breast; 50.6 µM in the test with NCI-H226 lung. Besides, the TGI in the test with SF-539 CNS is 18.9 µM; with SK-MEL-28 melanoma, over 100 µM; with SNB-75 CNS, 54.5 µM; in the test with UO-31 renal it was 29.7 µM.

Take `CCOC(=O)COc1ccc2c(C)cc(=O)oc2c1`: the TGI in the test on HCC-2998 colon, in the test with HOP-62 NSCLC, in the test with IGROV1 ovarian, in the test on M14 melanoma, in the test on MDA-MB-231 breast and with NCI-H226 lung was over 100 µM throughout. Further, the TGI with SF-539 CNS, in the test with SK-MEL-28 melanoma, in the test on SNB-75 CNS and in the test on UO-31 renal was over 100 µM each time.

Take `CC[C@H](C)[C@H](NC(=O)[C@H]1CCCCN1C)C(=O)N(C)[C@H](C[C@@H](OC(C)=O)c1nc(C(=O)N[C@@H](Cc2ccccc2)C[C@H](C)C(=O)O)cs1)C(C)C`: the GI50 is 1.3 nM and 1.65 nM in the test with HCC-2998 colon; 0.909 nM and 1.65 nM in the test with HOP-62 NSCLC; 6.04 nM and 1.65 nM in the test with IGROV1 ovarian; 0.337 nM and < 1.65 nM in the test on M14 melanoma; 2.01 nM and 1.65 nM with MDA-MB-231 breast; 0.0113 µM and < 0.00165 µM in the test on NCI-H226 lung. Also, the GI50 is 0.576 nM and < 1.65 nM in the test on SF-539 CNS; 8630 nM in the test on SK-MEL-28 melanoma; 0.568 nM and 1.65 nM in the test on SNB-75 CNS; 7.88 nM and 1.65 nM in the test with UO-31 renal. In addition, the TGI with HCC-2998 colon is over 16.5 µM; in the test with HOP-62 NSCLC it was over 16.5 µM; in the test on IGROV1 ovarian it was over 16.5 µM; in the test on M14 melanoma, under 0.00165 µM; in the test with MDA-MB-231 breast, over 16.5 µM; in the test with NCI-H226 lung, under 0.00165 µM. For the same compound, the TGI in the test on SF-539 CNS was 0.00596 µM and < 0.00165 µM; in the test on SK-MEL-28 melanoma it was over 16.5 µM; with SNB-75 CNS, over 16.5 µM; in the test with UO-31 renal, over 16.5 µM.

Turning to `COc1ccc(/C(C#N)=C2C=C/C(=N/O)c3ccccc3\2)cc1`, the GI50 with HCC-2998 colon is 346 nM; in the test with HOP-62 NSCLC it was 376 nM; in the test on IGROV1 ovarian it was 523 nM; with M14 melanoma it was 228 nM; with MDA-MB-231 breast, 270 nM; in the test on NCI-H226 lung, 3.71 µM. Also, the GI50 in the test on SF-539 CNS was 200 nM; in the test on SK-MEL-28 melanoma it was 1220 nM; in the test on SNB-75 CNS, 259 nM; in the test on UO-31 renal, 593 nM. Also, the TGI came out at 1.44 µM in the test with HCC-2998 colon; 16 µM with HOP-62 NSCLC; 17.6 µM with IGROV1 ovarian; 2.01 µM in the test on M14 melanoma; 0.796 µM in the test on MDA-MB-231 breast; 17 µM in the test with NCI-H226 lung. For the same compound, the TGI in the test on SF-539 CNS worked out at 0.67 µM; in the test on SK-MEL-28 melanoma it was 20 µM; with SNB-75 CNS, 11.5 µM; in the test with UO-31 renal, 15.3 µM.

Turning to `O=C1Cc2cc(C(=O)NC3C[C@H]4CC[C@@H](C3)N4S(=O)(=O)CC3CCN(CCCC(F)(F)F)CC3)c(Cl)cc2N1` (some centres undefined), the GI50 with HCC-2998 colon is over 100000 nM; in the test on HOP-62 NSCLC it was over 100000 nM; with IGROV1 ovarian, over 100000 nM; in the test on M14 melanoma, over 100000 nM; with MDA-MB-231 breast, over 100000 nM; in the test with NCI-H226 lung, over 100 µM. For the same compound, the GI50 with SF-539 CNS, in the test on SK-MEL-28 melanoma, in the test with SNB-75 CNS and in the test with UO-31 renal was over 100000 nM throughout. Moreover, the TGI in the test on HCC-2998 colon, in the test with HOP-62 NSCLC, with IGROV1 ovarian, in the test with M14 melanoma, in the test on MDA-MB-231 breast and in the test on NCI-H226 lung was over 100 µM in each case. Also, the TGI in the test on SF-539 CNS, in the test on SK-MEL-28 melanoma, in the test with SNB-75 CNS and in the test on UO-31 renal was over 100 µM throughout.

Turning to `O=C1/C=C/[C@@H](O)[C@@H]2C[C@@H](O)C[C@H]2/C=C/CCC[C@H](C(F)(F)F)O1`, the GI50 was 1140 nM with HCC-2998 colon; 2140 nM in the test with HOP-62 NSCLC; 561 nM with IGROV1 ovarian; 171 nM in the test on M14 melanoma; 268 nM in the test with MDA-MB-231 breast; 0.0687 µM in the test with NCI-H226 lung. In addition, the GI50 in the test on SF-539 CNS is 504 nM; in the test on SK-MEL-28 melanoma, 96 nM; in the test with SNB-75 CNS, 60.3 nM; with UO-31 renal it was 81.3 nM. Moreover, the TGI in the test on HCC-2998 colon is 9.2 µM; in the test with HOP-62 NSCLC it was over 100 µM; in the test on IGROV1 ovarian, 4.16 µM; in the test with M14 melanoma, 3.71 µM; with MDA-MB-231 breast, 0.774 µM; with NCI-H226 lung it was 0.68 µM. The TGI is over 100 µM with SF-539 CNS, 0.65 µM in the test with SK-MEL-28 melanoma, over 100 µM in the test on SNB-75 CNS and 2.25 µM with UO-31 renal.
